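Cells were grown in 96-well plates and exposed to each compound for 48 hours at five concentrations; endpoints were interpolated linearly between bracketing concentrations, or set to the highest concentration if not reached. The concentration for 50% growth inhibition is given as GI50. TGI denotes the concentration required for complete inhibition of growth.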
Columns and labels:
Assay in all cases: NCI anticancer screen, dose series, 48 h
786-0 renal = test system: 786-0 renal
A498 renal = test system: A498 renal
A549 NSCLC = test system: A549 NSCLC
ACHN renal = test system: ACHN renal
BT-549 breast = test system: BT-549 breast
CAKI-1 renal = test system: CAKI-1 renal
CCRF-CEM leukemia = test system: CCRF-CEM leukemia
COLO 205 colon = test system: COLO 205 colon
DU-145 prostate = test system: DU-145 prostate
EKVX NSCLC = test system: EKVX NSCLC
HCC-2998 colon = test system: HCC-2998 colon
HCT-116 colon = test system: HCT-116 colon
HCT-15 colon = test system: HCT-15 colon
HL-60(TB) leukemia = test system: HL-60(TB) leukemia
HOP-62 NSCLC = test system: HOP-62 NSCLC
HOP-92 NSCLC = test system: HOP-92 NSCLC
HS 578T breast = test system: HS 578T breast
HT29 colon = test system: HT29 colon
IGROV1 ovarian = test system: IGROV1 ovarian
K-562 leukemia = test system: K-562 leukemia
KM12 colon = test system: KM12 colon
LOX IMVI melanoma = test system: LOX IMVI melanoma
M14 melanoma = test system: M14 melanoma
MALME-3M melanoma = test system: MALME-3M melanoma
MCF7 breast = test system: MCF7 breast
MDA-MB-231 breast = test system: MDA-MB-231 breast
MDA-MB-435 = test system: MDA-MB-435
MOLT-4 leukemia = test system: MOLT-4 leukemia
NCI-H226 lung = test system: NCI-H226 lung
NCI-H23 lung = test system: NCI-H23 lung
NCI-H460 lung = test system: NCI-H460 lung
NCI-H522 lung = test system: NCI-H522 lung
NCI/ADR-RES ovarian = test system: NCI/ADR-RES ovarian
OVCAR-3 ovarian = test system: OVCAR-3 ovarian
OVCAR-4 ovarian = test system: OVCAR-4 ovarian
OVCAR-5 ovarian = test system: OVCAR-5 ovarian
OVCAR-8 ovarian = test system: OVCAR-8 ovarian
PC-3 prostate = test system: PC-3 prostate
RPMI-8226 leukemia = test system: RPMI-8226 leukemia
RXF 393 renal = test system: RXF 393 renal
SF-268 CNS = test system: SF-268 CNS
SF-295 CNS = test system: SF-295 CNS
SF-539 CNS = test system: SF-539 CNS
SK-MEL-2 melanoma = test system: SK-MEL-2 melanoma
SK-MEL-28 melanoma = test system: SK-MEL-28 melanoma
SK-MEL-5 melanoma = test system: SK-MEL-5 melanoma
SK-OV-3 ovarian = test system: SK-OV-3 ovarian
SN12C renal = test system: SN12C renal
SNB-19 CNS = test system: SNB-19 CNS
SNB-75 CNS = test system: SNB-75 CNS
SR leukemia = test system: SR leukemia
SW-620 colon = test system: SW-620 colon
T-47D breast = test system: T-47D breast
TK-10 renal = test system: TK-10 renal
U251 CNS = test system: U251 CNS
UACC-257 melanoma = test system: UACC-257 melanoma
UACC-62 melanoma = test system: UACC-62 melanoma
UO-31 renal = test system: UO-31 renal

`N#C/C(=C\c1c(-c2ccccc2)[nH]c2ccccc12)S(=O)(=O)c1ccccc1` gave a GI50 (786-0 renal) of 8.46 µM, a TGI (786-0 renal) greater than 100 µM and a GI50 (A498 renal) of 7.6 µM. For the same molecule, the TGI (A498 renal) was greater than 58.7 µM, the GI50 (A549 NSCLC) was 3.74 µM and the TGI (A549 NSCLC) was greater than 100 µM. The GI50 (ACHN renal) was 6.65 µM, the TGI (ACHN renal) was 75 µM and the GI50 (BT-549 breast) was 10 µM. The TGI (BT-549 breast) was greater than 56.9 µM, the GI50 (CAKI-1 renal) was 5.48 µM and the TGI (CAKI-1 renal) was greater than 63 µM. The GI50 (CCRF-CEM leukemia) was 2.38 µM, the TGI (CCRF-CEM leukemia) was 18.4 µM and the GI50 (COLO 205 colon) was 1.38 µM. The TGI (COLO 205 colon) was 17 µM, the GI50 (DU-145 prostate) was 2.4 µM and the TGI (DU-145 prostate) was 20.1 µM. It also gave a GI50 (EKVX NSCLC) of 5.49 µM, a TGI (EKVX NSCLC) greater than 64.8 µM and a GI50 (HCC-2998 colon) of 10.9 µM. For the same molecule, the TGI (HCC-2998 colon) was 34.3 µM, the GI50 (HCT-116 colon) was 1.72 µM and the TGI (HCT-116 colon) was greater than 76.6 µM. It also gave a GI50 (HCT-15 colon) of 1.07 µM, a TGI (HCT-15 colon) of 34.6 µM and a GI50 (HL-60(TB) leukemia) of 1.27 µM. For the same molecule, the TGI (HL-60(TB) leukemia) was 5.34 µM, the GI50 (HOP-62 NSCLC) was 8.06 µM and the TGI (HOP-62 NSCLC) was greater than 100 µM. It also gave a GI50 (HOP-92 NSCLC) of 8.88 µM, a TGI (HOP-92 NSCLC) of 69.8 µM and a GI50 (HS 578T breast) of 8.76 µM. It also gave a TGI (HS 578T breast) greater than 26.8 µM, a GI50 (HT29 colon) of 0.594 µM and a TGI (HT29 colon) greater than 41.5 µM. It also gave a GI50 (IGROV1 ovarian) of 3.28 µM, a TGI (IGROV1 ovarian) of 25.9 µM and a GI50 (K-562 leukemia) of 0.346 µM. For the same molecule, the GI50 (KM12 colon) was 0.625 µM, the TGI (KM12 colon) was 13.9 µM and the GI50 (LOX IMVI melanoma) was 4.47 µM. It also gave a TGI (LOX IMVI melanoma) of 25.5 µM, a GI50 (M14 melanoma) of 2.66 µM and a TGI (M14 melanoma) of 38.2 µM. The GI50 (MALME-3M melanoma) was 6.77 µM, the TGI (MALME-3M melanoma) was greater than 55.8 µM and the GI50 (MCF7 breast) was 2.15 µM. The TGI (MCF7 breast) was 18.4 µM, the GI50 (MDA-MB-231 breast) was 3.55 µM and the TGI (MDA-MB-231 breast) was 33.7 µM. The GI50 (MDA-MB-435) was 0.287 µM, the TGI (MDA-MB-435) was 3.77 µM and the GI50 (MOLT-4 leukemia) was 1.68 µM. For the same molecule, the TGI (MOLT-4 leukemia) was greater than 100 µM, the GI50 (NCI-H226 lung) was 4.06 µM and the TGI (NCI-H226 lung) was 37.8 µM. For the same molecule, the GI50 (NCI-H23 lung) was 4.26 µM, the TGI (NCI-H23 lung) was greater than 58.5 µM and the GI50 (NCI-H460 lung) was 2.73 µM. The TGI (NCI-H460 lung) was 18.3 µM, the GI50 (NCI-H522 lung) was 4.51 µM and the TGI (NCI-H522 lung) was 25.5 µM. It also gave a GI50 (NCI/ADR-RES ovarian) of 1.06 µM, a TGI (NCI/ADR-RES ovarian) of 43.4 µM and a GI50 (OVCAR-3 ovarian) of 1.14 µM. It also gave a TGI (OVCAR-3 ovarian) of 4.41 µM, a GI50 (OVCAR-4 ovarian) of 5.47 µM and a TGI (OVCAR-4 ovarian) greater than 100 µM. The GI50 (OVCAR-5 ovarian) was 18.2 µM, the TGI (OVCAR-5 ovarian) was 98.1 µM and the GI50 (OVCAR-8 ovarian) was 5.82 µM. It also gave a TGI (OVCAR-8 ovarian) greater than 78 µM, a GI50 (PC-3 prostate) of 3.34 µM and a TGI (PC-3 prostate) greater than 53.9 µM. It also gave a GI50 (RPMI-8226 leukemia) of 0.557 µM, a TGI (RPMI-8226 leukemia) of 6.88 µM and a GI50 (RXF 393 renal) of 3.43 µM. For the same molecule, the TGI (RXF 393 renal) was greater than 27.4 µM, the GI50 (SF-268 CNS) was 3.4 µM and the TGI (SF-268 CNS) was 20.5 µM. For the same molecule, the GI50 (SF-295 CNS) was 2.21 µM, the TGI (SF-295 CNS) was 14.6 µM and the GI50 (SF-539 CNS) was 2.48 µM. The TGI (SF-539 CNS) was 9.51 µM, the GI50 (SK-MEL-2 melanoma) was 12.5 µM and the TGI (SK-MEL-2 melanoma) was 45.3 µM. For the same molecule, the GI50 (SK-MEL-28 melanoma) was 5.97 µM, the TGI (SK-MEL-28 melanoma) was 28.8 µM and the GI50 (SK-MEL-5 melanoma) was 1.82 µM. For the same molecule, the TGI (SK-MEL-5 melanoma) was 11.5 µM, the GI50 (SK-OV-3 ovarian) was 6.39 µM and the TGI (SK-OV-3 ovarian) was greater than 71.5 µM. The GI50 (SN12C renal) was 5.24 µM, the TGI (SN12C renal) was 71.8 µM and the GI50 (SNB-19 CNS) was 7.08 µM. The TGI (SNB-19 CNS) was greater than 88.2 µM, the GI50 (SNB-75 CNS) was 1.67 µM and the TGI (SNB-75 CNS) was 29.4 µM. For the same molecule, the GI50 (SR leukemia) was 17.3 µM, the TGI (SR leukemia) was greater than 100 µM and the GI50 (SW-620 colon) was 0.544 µM. It also gave a TGI (SW-620 colon) of 20.5 µM, a GI50 (T-47D breast) of 3.82 µM and a TGI (T-47D breast) of 33.8 µM. For the same molecule, the GI50 (TK-10 renal) was 5.08 µM, the TGI (TK-10 renal) was greater than 54.3 µM and the GI50 (U251 CNS) was 2.49 µM. The TGI (U251 CNS) was 20.1 µM, the GI50 (UACC-257 melanoma) was 17.9 µM and the TGI (UACC-257 melanoma) was 56.2 µM. For the same molecule, the GI50 (UACC-62 melanoma) was 2.38 µM, the TGI (UACC-62 melanoma) was 24.9 µM and the GI50 (UO-31 renal) was 6.54 µM. For the same molecule, the TGI (UO-31 renal) was greater than 61.7 µM.

Reference: PubChem BioAssay (NCI)
